In article PMC11247487, “Discovery of Dual MER/AXL Kinase Inhibitors as Bifunctional Small Molecules for Inhibiting Tumor Growth and Enhancing Tumor Immune Microenvironment” (Journal of Medicinal Chemistry, 2024):
Several values for one entry are separate records, joined by “and”; a condition that tells them apart may be missing. Identical values can stand only once. Entries after “also recorded” stand apart in the source; their conditions may differ.

Key:
[1] = test system: FLT3; design: method as in PMID 25068800, PMID 27649555; conditions: cited from earlier work
[2] = target: T1, MER (Homo sapiens, UniProt Q12866); conditions: cited from earlier work
T1 construct: A purified kinase (MER or AXL) was incubated with a compound or DMSO
T1 sequence (Q12866 21-999): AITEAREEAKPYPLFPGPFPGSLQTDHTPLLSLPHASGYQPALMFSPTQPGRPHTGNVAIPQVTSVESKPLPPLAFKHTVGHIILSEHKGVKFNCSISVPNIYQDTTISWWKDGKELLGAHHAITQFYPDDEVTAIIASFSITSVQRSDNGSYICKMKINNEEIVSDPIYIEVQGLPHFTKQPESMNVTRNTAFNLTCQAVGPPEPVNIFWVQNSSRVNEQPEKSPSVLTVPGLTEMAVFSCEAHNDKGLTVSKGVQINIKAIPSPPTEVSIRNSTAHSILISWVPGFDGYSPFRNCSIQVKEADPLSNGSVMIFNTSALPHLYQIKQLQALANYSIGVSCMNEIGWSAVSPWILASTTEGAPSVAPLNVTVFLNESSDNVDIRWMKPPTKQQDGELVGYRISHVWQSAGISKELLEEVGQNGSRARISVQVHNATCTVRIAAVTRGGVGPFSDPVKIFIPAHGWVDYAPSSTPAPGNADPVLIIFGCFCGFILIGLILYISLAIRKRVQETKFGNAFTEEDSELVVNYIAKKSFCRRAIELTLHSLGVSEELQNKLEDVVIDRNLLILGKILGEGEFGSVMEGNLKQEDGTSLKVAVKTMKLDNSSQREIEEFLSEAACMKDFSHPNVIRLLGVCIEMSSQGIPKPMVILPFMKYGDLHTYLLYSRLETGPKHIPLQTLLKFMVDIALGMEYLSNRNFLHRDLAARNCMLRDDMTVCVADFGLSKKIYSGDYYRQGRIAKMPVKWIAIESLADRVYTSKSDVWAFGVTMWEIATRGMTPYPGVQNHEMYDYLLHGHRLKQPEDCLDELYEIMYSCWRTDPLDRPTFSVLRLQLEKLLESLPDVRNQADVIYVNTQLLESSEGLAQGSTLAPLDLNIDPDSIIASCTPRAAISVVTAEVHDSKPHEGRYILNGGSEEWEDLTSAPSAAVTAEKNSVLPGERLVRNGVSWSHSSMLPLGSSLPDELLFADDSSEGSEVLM

[3] = target: DDR1 (Homo sapiens, UniProt Q08345); test: HotSpot kinase assay; conditions: read-out: % Enzyme Activity
[4] = target: TRKB (Homo sapiens, UniProt Q16620); test: HotSpot kinase assay; conditions: read-out: % Enzyme Activity
[5] = test system: AXL phosphorylation in H1299 cells; test: Western blotting of AXL phosphorylation; conditions: 1 h treatment
[6] = In vivo pharmacokinetics study; conditions: mice
Procedure: The animal studies were performed according to NHRI institutional animal care and committee-approved procedures. Male ICR mice (25–35 g) were obtained from BioLASCO (Taiwan Co., Ltd., Ilan, Taiwan). […] All samples were analyzed for the parent drug by LC-MS/MS. Plasma concentration data were analyzed with a noncompartmental method.

[7] = target: IRR (Homo sapiens, UniProt P14616); test: HotSpot kinase assay; conditions: read-out: % Enzyme Activity
[8] = test system: MC38 murine colon tumor; test: MC38 syngeneic tumor model; format: in vivo, mice; conditions: MC38 tumor-bearing mice, 25-50 mg/kg orally, 3 weeks
[9] = In vitro microsomal stability assay; format: in vitro ADME; conditions: 1 μM, mouse liver microsomes, percent remaining at 30 min
Procedure: All incubations were initiated with the addition of NADPH-generating system at 37 °C for 30 min. At 0 and the end of incubation, 100 μL of aliquots were taken from the incubation mixture and placed into centrifuge tubes containing 100 μL of ice-cold acetonitrile to terminate the metabolic reaction. The samples were vortexed and centrifuged, and then, the supernatant injected onto LC/MS. Percent of remaining of each compound was calculated by comparing peak areas at 30 min to that at the initiation of incubation.

[10] = test system: immune cells in tumor and spleen of MC38 tumor-bearing mice; test: Immunophenotyping by flow cytometry; format: in vivo; conditions: 50 mg/kg QD, FOTO, 2 weeks
Procedure: Tumor and spleen tissues from the control and treated animals were harvested 2 h after the last dose (day 11). […] tissues were carefully removed from the tumors followed by digestion with 0.1% collagenase III in DMEM medium for 30 min at 37 °C with agitation every 10 min. The digestion was terminated by adding 10% FBS containing PBS. The single-cell suspension was filtered through a 40 μm filter after red blood cell lysis. Aliquots of the cell suspension were preincubated with the mouse Fc receptor blocker for 10 min before staining with appropriate antimouse antibody conjugate for Cd45, Cd3, Cd4, Cd8, Cd11b, Cd86, F4/80, AXL, and MER (all antibody conjugates from BioLegend) at 4 °C for 30 min followed by two washes in 1% BSA containing buffer and analyzed by flow cytometry to quantify the accumulation of infiltrating immune cells into the tumor. For analysis of Cd206, the cells were fixed using the Cyto X/Cytoperm kit (BD Biosciences) after surface marker staining and then stained with antimouse Cd206 antibody.

[11] = 14-day repeated dose toxicity study; conditions: ICR mice
[12] = target: ROS1 (Homo sapiens, UniProt P08922); test: HotSpot kinase assay; conditions: read-out: % Enzyme Activity
[13] = target: TRKC (Homo sapiens, UniProt Q16288); test: HotSpot kinase assay; conditions: read-out: % Enzyme Activity
[14] = target: FLT3 (Homo sapiens, UniProt P36888); test: HotSpot kinase assay; conditions: read-out: % Enzyme Activity
[15] = test system: MER phosphorylation in G361 cells; test: Western blotting of MER phosphorylation; conditions: 48 h treatment
[16] = test system: Ba/F3-MER cells; test: Cell viability assay (MTS); format: cell-based; conditions: 72 h
[17] = target: KIT (Homo sapiens, UniProt P10721); test: HotSpot kinase assay; conditions: read-out: % Enzyme Activity
[18] = mouse, in vivo
[19] = target: TRKA (Homo sapiens, UniProt P04629); test: HotSpot kinase assay; conditions: read-out: % Enzyme Activity
[20] = target: DDR2 (Homo sapiens, UniProt Q16832); test: HotSpot kinase assay; conditions: read-out: % Enzyme Activity
[21] = male, ICR, mouse, plasma, iv 2 mg/kg, po 10 mg/kg

Chain of TRKA (P04629 33-796): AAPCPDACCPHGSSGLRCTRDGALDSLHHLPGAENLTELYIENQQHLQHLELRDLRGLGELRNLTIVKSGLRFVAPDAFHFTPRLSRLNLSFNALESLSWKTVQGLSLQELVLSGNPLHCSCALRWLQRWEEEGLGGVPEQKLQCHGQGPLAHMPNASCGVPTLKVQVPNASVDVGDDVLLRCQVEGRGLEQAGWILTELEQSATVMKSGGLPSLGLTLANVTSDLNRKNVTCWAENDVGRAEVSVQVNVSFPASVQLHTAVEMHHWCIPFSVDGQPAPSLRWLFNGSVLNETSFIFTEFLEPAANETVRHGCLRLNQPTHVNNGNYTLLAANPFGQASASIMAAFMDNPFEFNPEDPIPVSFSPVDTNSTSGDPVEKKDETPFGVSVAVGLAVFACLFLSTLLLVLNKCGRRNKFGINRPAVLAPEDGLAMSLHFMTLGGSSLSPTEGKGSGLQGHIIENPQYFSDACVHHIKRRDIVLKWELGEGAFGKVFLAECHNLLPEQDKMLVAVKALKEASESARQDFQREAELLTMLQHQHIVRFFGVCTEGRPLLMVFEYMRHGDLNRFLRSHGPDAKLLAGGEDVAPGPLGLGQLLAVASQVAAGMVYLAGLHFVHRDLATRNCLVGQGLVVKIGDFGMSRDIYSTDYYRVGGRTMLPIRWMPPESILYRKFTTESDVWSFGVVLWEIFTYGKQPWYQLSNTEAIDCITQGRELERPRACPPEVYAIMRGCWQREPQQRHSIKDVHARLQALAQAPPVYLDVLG
Chain of DDR1 (Q08345 19-913): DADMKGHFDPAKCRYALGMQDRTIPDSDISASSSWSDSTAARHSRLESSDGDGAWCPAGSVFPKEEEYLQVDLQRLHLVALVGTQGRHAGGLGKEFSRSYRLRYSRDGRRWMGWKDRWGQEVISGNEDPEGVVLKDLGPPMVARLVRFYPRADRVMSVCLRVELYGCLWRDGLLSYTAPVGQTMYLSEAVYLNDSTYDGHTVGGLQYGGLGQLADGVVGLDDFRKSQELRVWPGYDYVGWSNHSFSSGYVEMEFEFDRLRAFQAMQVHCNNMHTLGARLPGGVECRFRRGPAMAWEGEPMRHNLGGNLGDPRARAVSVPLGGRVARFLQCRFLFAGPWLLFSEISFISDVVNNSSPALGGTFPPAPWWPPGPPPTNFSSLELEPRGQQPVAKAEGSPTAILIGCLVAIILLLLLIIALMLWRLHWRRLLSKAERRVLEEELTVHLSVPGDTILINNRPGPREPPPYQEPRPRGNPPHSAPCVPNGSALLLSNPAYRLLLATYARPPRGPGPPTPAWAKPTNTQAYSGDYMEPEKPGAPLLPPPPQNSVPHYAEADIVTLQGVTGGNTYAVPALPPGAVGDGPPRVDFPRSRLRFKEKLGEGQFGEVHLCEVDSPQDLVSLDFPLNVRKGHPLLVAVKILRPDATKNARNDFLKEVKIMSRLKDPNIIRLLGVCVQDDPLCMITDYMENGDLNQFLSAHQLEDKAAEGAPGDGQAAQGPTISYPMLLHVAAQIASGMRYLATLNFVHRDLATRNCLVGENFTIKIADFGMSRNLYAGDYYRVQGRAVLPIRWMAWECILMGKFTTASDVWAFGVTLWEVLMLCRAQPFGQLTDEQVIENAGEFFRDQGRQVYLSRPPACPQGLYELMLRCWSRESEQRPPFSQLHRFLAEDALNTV
Chain of DDR2 (Q16832 22-855): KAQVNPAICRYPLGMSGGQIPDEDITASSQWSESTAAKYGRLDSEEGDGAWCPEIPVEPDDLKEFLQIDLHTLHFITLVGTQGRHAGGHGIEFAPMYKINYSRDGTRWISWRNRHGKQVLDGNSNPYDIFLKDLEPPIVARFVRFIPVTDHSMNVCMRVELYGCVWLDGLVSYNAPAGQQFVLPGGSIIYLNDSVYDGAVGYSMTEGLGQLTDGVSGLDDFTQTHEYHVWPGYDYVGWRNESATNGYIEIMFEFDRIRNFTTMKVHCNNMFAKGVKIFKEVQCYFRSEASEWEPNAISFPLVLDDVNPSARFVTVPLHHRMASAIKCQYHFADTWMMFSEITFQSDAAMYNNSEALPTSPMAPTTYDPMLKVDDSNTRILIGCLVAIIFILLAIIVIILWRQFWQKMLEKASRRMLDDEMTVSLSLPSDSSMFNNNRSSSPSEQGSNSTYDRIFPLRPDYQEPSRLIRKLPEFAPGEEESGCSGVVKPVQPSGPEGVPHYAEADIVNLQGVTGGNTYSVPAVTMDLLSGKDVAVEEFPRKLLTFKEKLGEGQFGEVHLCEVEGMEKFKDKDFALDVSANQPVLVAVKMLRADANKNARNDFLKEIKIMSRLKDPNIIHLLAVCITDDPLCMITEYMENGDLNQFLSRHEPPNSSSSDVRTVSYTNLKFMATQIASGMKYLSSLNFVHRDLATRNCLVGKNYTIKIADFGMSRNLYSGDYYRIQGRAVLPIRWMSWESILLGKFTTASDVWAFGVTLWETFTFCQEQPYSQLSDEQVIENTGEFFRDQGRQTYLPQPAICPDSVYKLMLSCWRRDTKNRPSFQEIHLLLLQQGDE
Chain of FLT3 (P36888 27-993): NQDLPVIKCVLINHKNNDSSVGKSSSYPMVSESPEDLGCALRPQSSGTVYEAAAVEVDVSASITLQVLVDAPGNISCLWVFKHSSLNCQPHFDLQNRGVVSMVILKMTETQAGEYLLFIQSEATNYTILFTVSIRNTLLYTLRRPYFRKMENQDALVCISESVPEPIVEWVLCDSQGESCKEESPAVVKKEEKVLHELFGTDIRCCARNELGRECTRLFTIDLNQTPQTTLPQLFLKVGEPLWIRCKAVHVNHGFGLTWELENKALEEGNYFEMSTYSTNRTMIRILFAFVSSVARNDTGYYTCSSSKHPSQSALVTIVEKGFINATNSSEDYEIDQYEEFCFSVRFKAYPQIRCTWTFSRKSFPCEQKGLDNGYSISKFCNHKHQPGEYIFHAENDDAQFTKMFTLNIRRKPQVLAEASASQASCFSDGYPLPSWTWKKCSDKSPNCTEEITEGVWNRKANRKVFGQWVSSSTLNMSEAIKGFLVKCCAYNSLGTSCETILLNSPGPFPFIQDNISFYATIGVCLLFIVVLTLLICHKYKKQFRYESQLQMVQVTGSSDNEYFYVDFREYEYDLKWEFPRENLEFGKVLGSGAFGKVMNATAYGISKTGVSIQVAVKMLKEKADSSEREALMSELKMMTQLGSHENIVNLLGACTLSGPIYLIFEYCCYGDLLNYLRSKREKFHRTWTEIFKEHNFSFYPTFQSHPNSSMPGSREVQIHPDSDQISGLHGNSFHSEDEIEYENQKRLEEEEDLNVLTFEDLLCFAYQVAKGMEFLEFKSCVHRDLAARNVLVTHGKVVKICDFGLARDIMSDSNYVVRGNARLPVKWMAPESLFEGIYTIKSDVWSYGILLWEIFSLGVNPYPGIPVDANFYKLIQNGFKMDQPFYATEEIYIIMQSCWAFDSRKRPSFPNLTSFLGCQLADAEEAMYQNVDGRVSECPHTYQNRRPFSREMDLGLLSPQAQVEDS
Chain of TRKC (Q16288 32-839): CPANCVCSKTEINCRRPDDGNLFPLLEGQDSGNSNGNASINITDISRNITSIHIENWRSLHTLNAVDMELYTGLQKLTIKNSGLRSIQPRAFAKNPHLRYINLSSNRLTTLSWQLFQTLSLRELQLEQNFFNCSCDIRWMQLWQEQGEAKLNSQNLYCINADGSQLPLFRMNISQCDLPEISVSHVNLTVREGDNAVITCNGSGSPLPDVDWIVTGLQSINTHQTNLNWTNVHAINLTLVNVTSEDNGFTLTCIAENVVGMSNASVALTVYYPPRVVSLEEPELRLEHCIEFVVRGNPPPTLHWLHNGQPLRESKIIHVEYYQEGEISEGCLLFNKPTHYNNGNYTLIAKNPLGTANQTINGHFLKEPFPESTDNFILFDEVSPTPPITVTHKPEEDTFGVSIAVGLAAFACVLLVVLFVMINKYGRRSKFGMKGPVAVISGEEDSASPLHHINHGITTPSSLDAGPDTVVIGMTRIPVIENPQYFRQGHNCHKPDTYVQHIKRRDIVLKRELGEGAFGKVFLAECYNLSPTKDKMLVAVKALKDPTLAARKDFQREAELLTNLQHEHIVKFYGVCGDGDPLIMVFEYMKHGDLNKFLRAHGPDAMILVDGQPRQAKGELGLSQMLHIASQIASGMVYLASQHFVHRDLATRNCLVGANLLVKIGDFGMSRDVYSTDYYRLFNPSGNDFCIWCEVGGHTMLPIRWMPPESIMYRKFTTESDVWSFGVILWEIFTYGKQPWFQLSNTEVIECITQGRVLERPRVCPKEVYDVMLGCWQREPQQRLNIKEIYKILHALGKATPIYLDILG
Chain of TRKB (Q16620 32-822): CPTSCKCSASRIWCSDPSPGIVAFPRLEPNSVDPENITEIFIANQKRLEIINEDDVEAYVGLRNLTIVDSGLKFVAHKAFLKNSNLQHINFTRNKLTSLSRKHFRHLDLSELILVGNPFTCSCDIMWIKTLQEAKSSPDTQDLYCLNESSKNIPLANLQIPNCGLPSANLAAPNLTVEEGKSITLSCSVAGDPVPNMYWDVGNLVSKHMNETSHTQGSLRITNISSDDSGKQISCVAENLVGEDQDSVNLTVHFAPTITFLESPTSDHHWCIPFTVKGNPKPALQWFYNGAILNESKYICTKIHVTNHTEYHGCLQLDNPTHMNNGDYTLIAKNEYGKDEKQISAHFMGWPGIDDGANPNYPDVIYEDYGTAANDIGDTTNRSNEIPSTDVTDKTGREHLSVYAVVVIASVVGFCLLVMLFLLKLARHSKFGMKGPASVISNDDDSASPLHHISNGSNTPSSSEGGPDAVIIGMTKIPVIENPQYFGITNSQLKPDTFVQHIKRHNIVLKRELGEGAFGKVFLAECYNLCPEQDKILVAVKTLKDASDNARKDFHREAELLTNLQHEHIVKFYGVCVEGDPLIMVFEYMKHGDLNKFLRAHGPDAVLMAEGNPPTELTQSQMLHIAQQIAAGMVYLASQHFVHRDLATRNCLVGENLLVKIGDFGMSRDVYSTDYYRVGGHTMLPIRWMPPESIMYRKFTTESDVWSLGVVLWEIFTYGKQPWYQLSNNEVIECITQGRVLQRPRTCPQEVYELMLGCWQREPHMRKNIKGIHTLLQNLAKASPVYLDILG

In the case of `CCC[C@@H](C)Nc1ncc2c(C3CCN(C(=O)c4cc(C)nc(C)c4)CC3)cn([C@H]3CC[C@H](O)CC3)c2n1` [Compound 2, UNC5293], the IC50 [2] is listed as 0.9 nM.

In the case of `CN(C)Cc1cccc(-c2c(-c3cnn(C)c3)oc3ncnc(Oc4ccc(NC(=O)c5cccn(-c6ccc(F)cc6)c5=O)cc4)c23)c1` [Compound 33, N-{4-[(5-{3-[(Dimethylamino)methyl]phenyl}-6-(1-methyl-1H-pyrazol-4-yl)furo[2,3-d]pyrimidin-4-yl)oxy]phenyl}-1-(4-fluorophenyl)-2-oxo-1,2-dihydropyridine-3-carboxamide], the remaining activity at 1 µM [3] is reported as 9.39%, the remaining activity at 1 µM [4] is reported as 6.07% and the “Gas6-mediated AXL phosphorylation” value [5] is reported as “effectively blocked”. It also gave a bioavailability [6, 21] greater than 20%, a bioavailability at 24 h [6, 21] of 54.6% and a clearance ([6]; male, ICR, mouse, plasma, iv 2 mg/kg, read-out: iv CL) of 12.6 mL/min/kg. It also gave a half-life ([6]; male, ICR, mouse, plasma, iv 2 mg/kg, read-out: iv T1/2 (converted)) of 4.5 h, a Vd ([6]; male, ICR, mouse, plasma, iv 2 mg/kg, read-out: iv Vss) of 5.2 L/kg and a Tmax at 24 h ([6]; male, ICR, mouse, plasma, po 10 mg/kg) of 5.3 h. The half-life at 24 h ([6]; male, ICR, mouse, plasma, po 10 mg/kg, read-out: po T1/2 (converted)) was 5.2 h, the “iv DNAUC(0–inf)” value ([6]; iv 2 mg/kg, dose-normalized) was 1,573.0 ng × hr/mL and the “po DNAUC(0–inf)” value ([6]; po 10 mg/kg, dose-normalized) was 858.8 ng·h/mL. The “po DNCmax” value ([6]; po 10 mg/kg, dose-normalized) was 95.0 ng/mL, the remaining activity at 1 µM [7] was 1.79% and the “body weight during treatment” value [8] was “well-tolerated without significant body weight loss”. The “Microsomal stability @ 30 min” value [9] was 79%, the “increase in intratumoral M1-like macrophages” value [10] was 2 fold and the “increase in percentage of Cd3^+ pan-T cells in spleen” value [10] was 2 fold. The “increase in percentage of Cd4^+ helper T cells in spleen” value [10] was 2 fold, the “increase in percentage of Cd8^+ cytotoxic T cells in spleen” value [10] was 6 fold and the CBC [11] was “No significant”. For the same molecule, the body weight [11] was “No effect on body”, the “kidney serum biomarker CRE” value [11] was “Mild effect on CRE; also recorded: mild decline in kidney serum biomarker CRE at 30 and 100 mpk” and the organ weight [11] was “No significant”. It also gave a remaining activity at 1 µM [12] of 2.88%, a remaining activity at 1 µM [13] of 2.26% and a remaining activity at 1 µM [14] of -0.03%. For the same molecule, the “MER phosphorylation induced by MAB8912” value [15] was “effectively blocked MER phosphorylation”, the IC50 [16] was 5 nM and 4.8 nM and the remaining activity at 1 µM [17] was 1.05%. For the same molecule, the “toxicity, 14-day repeated dose” value [18] was “no significant toxicity at any dose level”, the remaining activity at 1 µM [19] was 3.35% and the remaining activity at 1 µM [20] was 4.45%.
